According to the METLIN SMRT retention time set (Domingo-Almenara et al. 2019):

Experiment: gradient 5% acetonitrile 3 min, to 50% in 2 min, to 85% in 15 min, held 3 min, 100 µL/min
Details: column: Zorbax Extend-C18 2.1 x 50 mm; eluents: water / acetonitrile, 0.1% formic acid
In short: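 Pure standards were analyzed in mixtures of ~100 molecules using HPLC coupled to a quadrupole time-of-flight mass spectrometer, in both positive and negative ionization mode. Separation used a Zorbax Extend-C18 column (2.1 × 50 mm, 1.8 μm) at 100 μL/min, with water and acetonitrile each containing 0.1% formic acid. Dead and dwell volumes were 40 μL and 900 μL, and data were collected over 3 months. Retention time was read from computationally picked adduct peaks, each inspected manually.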

Row | Compound | RP-LC retention time [s]
1 | CCCS(=O)(=O)N1CC(=O)N(c2ccc(Cl)cc2C)C(C)(C(=O)NC2CCCCC2)C1 (stereo unspecified) | 1040
2 | Cc1cc(NC(=O)C2CCC2)nn1Cc1ccccc1 | 841
3 | Cc1ccc(Cn2cc(-c3ccncc3)cc2C(=O)NCc2ccc(N(C)C)cc2)cc1 | 630
4 | CCCn1nccc1-c1csc(S(=O)(=O)N2CCC3(CC2)OCCO3)c1 | 906
5 | Cc1nc(OCC(=O)Nc2cccc(C(F)(F)F)c2)c2ccccc2n1 | 817
6 | COc1ccc(NC(=O)C2CCN(c3nnc4ccc(Cl)cn34)CC2)c(OC)c1 | 723
7 | COC(=O)c1c(C)[nH]c(C(=O)N2CCCC(C(=O)NCc3ccccn3)C2)c1C (stereo unspecified) | 577
8 | Cc1ccccc1NC(=O)Cn1ccc2sccc2c1=O | 701
9 | CCOc1ccc2c(n1)CCN(C(=O)Nc1ccc(CC)cc1)C2 | 943
10 | COc1cc(OC)c(NC(=O)N2CCc3nc[nH]c3C2)cc1Cl | 583
11 | O=C(Nc1cccc(C(F)(F)F)c1)Nc1cc(Cl)ccc1C(=O)O | 1080
12 | O=C(Cn1cnc2c(sc3nc(-c4ccccc4)ccc32)c1=O)Nc1ccccc1F | 993
13 | Cc1cccc(CNC(=O)C2(C)Cn3cnc(C(=O)NC4CCCCC4)c3C(=O)N2C2CC2)c1 (stereo unspecified) | 819
14 | CCNC(=O)C1CCN(S(=O)(=O)c2ccc(OCC)c(C)c2)CC1 | 796
15 | COC(=O)c1cccc(C(=O)Nc2ccccc2C)n1 | 869
16 | CNC(=O)C1CN(C(=O)c2ccccc2Cl)CC12CCCC2 (stereo unspecified) | 665
17 | COCCNC(=O)C1CCN(c2nccnc2Sc2cccc(C)c2)CC1 | 826
18 | COc1ccccc1NC(=O)N1C[C@@H](F)C[C@H]1C(=O)N1CCc2ccccc2C1 | 828
19 | O=C(c1cn2c(n1)COCC2)N1CCN(c2ccc(Cl)cc2)CC1 | 699
20 | Cc1ccc(Nc2c(-c3ccc(N(C)C)cc3)nc3cnccn23)cc1Cl | 958
21 | Cc1ccccc1-c1noc(C2CCCN2C(=O)CNS(=O)(=O)c2ccc(Cl)cc2)n1 (stereo unspecified) | 1020
22 | NC(=O)c1c(NC(=O)C2CCCN(C(=O)C3CCCC3)C2)sc2c1CCCC2 (stereo unspecified) | 866

Row | Compound | RP-LC retention time [s]
23 | CCn1nccc1C(=O)N1CCC[C@H]1c1nc(-c2ccccc2)n[nH]1 | 627
24 | CCc1ccc2nc(C)cc(C(=O)NC3CC3)c2c1 | 605
25 | O=C(Nc1ccc(Br)cc1F)C1CCCN(C(=O)c2cccc(C(F)(F)F)c2)C1 (stereo unspecified) | 1060
26 | COc1ccc(Nc2c(-c3ccc(C)cc3)nc3ncccn23)cc1 | 720
27 | Cc1noc(C)c1S(=O)(=O)N1CCC(C(=O)NCc2csc(-c3ccccc3)n2)CC1 | 870
28 | Nc1nc(CN2CCN(c3ccccn3)CC2)nc(N2CCCCC2)n1 | 561
29 | COc1ccc(NC(=O)N2CCN(C3=CC4=NCC(C)N4C=N3)CC2)cc1 (stereo unspecified) | 599
30 | O=C(NCc1cccnc1-c1ccccc1)c1ccc(Br)cc1 | 686
31 | CCCNC(=O)c1sc(Nc2ccc(Br)cn2)nc1C | 802
32 | CCc1noc(-c2ccc(SCC(=O)N3CCCCC3)nc2)n1 | 875
33 | COCC(=O)N(CC(=O)N1CCc2sccc2C1COc1ccccc1F)CC(C)C (stereo unspecified) | 900
34 | Cc1ccccc1Nc1c(-c2ccc(O)cc2)nc2ccc(Cl)cn12 | 710
35 | COc1cccc(-c2noc(C3CCCN3C(=O)Nc3ccc(C)cc3)n2)c1 (stereo unspecified) | 983
36 | O=C(Cc1nnc(-c2ccccc2)o1)NCc1ccncc1 | 566
37 | CCOC(=O)c1[nH]c(C)c(C(=O)C(C)N(C(=O)c2cccc(F)c2)C2CC2)c1C (stereo unspecified) | 988
38 | C[C@@H]1O[C@@H](O[C@H]2C[C@@H](O)[C@]3(CO)[C@@H]4C(CC[C@]3(O)C2)[C@@]2(O)CC[C@H](C3COC(=O)C3)[C@@]2(C)C[C@H]4O)[C@H](O)[C@H](O)[C@H]1O (stereo partly specified) | 602
39 | CCS(=O)(=O)c1nc2ccc(NS(=O)(=O)c3cc(Cl)ccc3OC)cc2s1 | 914
40 | Cn1nnc2ccc(-c3noc(COc4ccc(F)cc4)n3)cc21 | 924
41 | CCCNC(=O)C1CCCN(c2ccc(SCC(=O)Nc3ccc(C(=O)OC)cc3)nn2)C1 (stereo unspecified) | 672
42 | Cc1nc(CN2CC(c3nc(-c4cccs4)no3)C2)cs1 | 568
43 | CCOC(=O)COC(=O)c1cn(-c2ccc(OC)cc2)c(=O)c2ccccc12 | 1010
44 | Cc1cccc(CN2CC(n3cc(COc4ccc(F)cc4)nn3)C2)c1 | 605

Row | Compound | RP-LC retention time [s]
45 | CCCN1CCN(C(=O)c2sc3ncn(CC(=O)N4CCCCC4C)c(=O)c3c2C)CC1 (stereo unspecified) | 596
46 | COc1ccc(-n2c(=O)c(C(=O)NCC3CCCO3)c(O)c3cccnc32)cc1 (stereo unspecified) | 947
47 | Cc1ccc(NS(=O)(=O)c2cc(-c3cc(C(F)(F)F)on3)sc2C)cc1 | 1170
48 | Cc1ccc(-c2noc(Cn3c(=O)n(C(C)C)c(=O)c4ccccc43)n2)cc1 | 1150
49 | CCCNC(=O)C1CCCN(c2ccc(SCC(=O)Nc3cc(F)ccc3C)nn2)C1 (stereo unspecified) | 700
50 | COc1ccc(-c2nnc3n2CCN(Cc2scnc2C)C3)cc1 | 657
51 | O=C(NC1CCCc2ccccc21)C1CCN(C(=O)C2Sc3ccccc3NC2=O)CC1 (stereo unspecified) | 793
52 | O=C(CCN(CC1CCCO1)C(=O)c1ccc(C(F)(F)F)cc1)N1CCNCC1 (stereo unspecified) | 628
53 | COc1ccc(NC(=O)C(C)C2CCN(C(=O)Nc3ccc(F)cc3)CC2)cc1 (stereo unspecified) | 799
54 | CCn1cc(-c2nc(C(=O)Nc3ccc(OC)c(Cl)c3)cs2)c2cccnc21 | 1110
55 | Cc1ccccc1Nc1c(-c2ccc(Cl)cc2)nc2ccc(Br)cn12 | 1090
56 | O=S(=O)(c1ccc(F)c(F)c1)N1CCCC(Cn2c(C3CC3)nc3cccnc32)C1 (stereo unspecified) | 782
57 | CCNc1cc(N2CCCC(CCC(=O)N(C)Cc3cn(C)nc3C)C2)ncn1 (stereo unspecified) | 598
58 | CCc1ccc(NS(=O)(=O)c2ccc3c(c2)C(=O)N(C)c2ncccc2O3)cc1 | 1010
59 | Cc1ccc(NC(=O)Cn2nc3c(N4CCSCC4)nccn3c2=O)cc1C | 839
60 | Cc1[nH]c(C(=O)N2CCCC(C(=O)NC3CCCCCC3)C2)c(C)c1C(=O)OC(C)C (stereo unspecified) | 944
61 | Cc1cccc(N2CCN([C@H]3CS(=O)(=O)C[C@@H]3S(=O)(=O)c3ccccc3)CC2)c1 | 876
62 | CCC(C)Nc1nc(-c2ccc(Cl)cc2)nc2ccccc12 (stereo unspecified) | 822
63 | CCCn1cc(S(=O)(=O)Nc2ccccc2Cl)c2cccnc21 | 914
64 | COCCN(Cc1ccc(F)cc1)Cc1cc(=O)n2cc(Cl)ccc2n1 | 647
65 | Cc1noc(-c2cccc(OC3CN(C(=O)NC4CCCCC4)C3)c2)n1 | 891
66 | Cc1[nH]c2ccc(-c3nnc(SCC(=O)NCCc4nc5ccccc5[nH]4)o3)cc2c1C | 667
